The values below come from US7034020B2, “Derivatives of butyric acid and uses thereof” (The University of Arkansas for Medical Science, priority 1999, dated 2006).

“And” between values parts separate entries of the source, which are not always exact repeats. Identical values can stand only once. Like-named read-outs stand apart in the source and are kept apart here.

In data set [1] the test system is KLH-specific Th1 cells (clone D3). Description: IL-2-induced proliferation of Th1 cells in the presence of butyrate derivatives. The format is cell-based, C57BL/10 mice. The following applies: for Suppression of IL-2-induced proliferation of Th1 cells: 10% Con A CM, various concentrations, proliferation after 2 days. How it is done:
KLH-specific Th1 cells (clone D3) are stimulated with IL-2 (10% Con A CM) in the presence of different concentrations of n-butyrate or butyrate derivatives. In FIG. 2A Th1 cell proliferation is measured after 2 days. In FIG. 2B, the inhibitors are washed out after 24 hours, and the Th1 cells reincubated with fresh IL-2-containing medium. Proliferation of the Th1 cells restimulated with IL-2 in the absence of the inhibitors is measured after an additional 2 days. This experiment was repeated three times, and the proliferation data represents the means of the […] experiments.
The KLH-specific were developed in C57BL/10 mice, and characterized as Th1 clones based on their ability to secrete IL-2, but not IL-4. The Th1 clones were passed every 7–14 days using KLH, irradiated syngeneic spleen cells as antigen-presenting cells (APC), and IL-2-containing Con A CM using a previously described protocol (Gilbert et al., 1990).
To test the ability of the butyrate derivatives to suppress T cell activity […], Th1 cells [(5×10^4 cells/well in 96 well plates (Costar)] are stimulated with 10% IL-2-containing Con A CM in the presence of various concentrations of different butyrate derivatives. In some cultures, Th1 cell proliferation is measured after two days. In other cultures, the Th1 cells are washed after 24 hours, and fresh IL-2-containing medium is added. Proliferation is measured in the washed, IL-2-restimulated cultures after an additional 2 days.

For data set [2], the system named is total anti-ovalbumin antibody in the serum. Description: Primary anti-ovalbumin antibody production in vivo (ELISA), derivatives on Days 1–3. The arrangement: species or system C57BL/10 mice. The following applies: 0.091 mmol ip Days 1–3; serum day 10; versus saline. On the procedure:
C57BL/10 mice are injected ip on Day 0 with ovalbumin followed by ip injections of saline, or one of three different butyrate derivatives on Days 1–3.
The butyrate derivatives are tested for their ability to suppress lymphocyte activity in vivo. C57BL/10 mice (5 mice/group) are injected ip with 100 μg of ovalbumin in conjunction with complete Freund's adjuvant on Day 0. In one experiment, the mice also receive one ip injection per day of the butyrate derivatives (0.091 mmol) on Days 1–3. Serum samples are obtained 10 days after the initial injection with ovalbumin, and tested for the presence of anti-ovalbumin antibodies using an ELISA. To perform the ELISA 96 well plates (Costar 3595) are first incubated with ovalbumin (100 μl/well of 100 μg/ml in PBS) overnight at 4° C. The plates are then washed 4 times with PBS and 0.5% Tween 20, blocked with 1% fetal calf serum for 30 minutes at 37° C., and washed again. Individual serum samples are added (diluted 1/100 or 1/1000 in PBS), and the plates are incubated for 2 hours at 20° C. The plates were next washed 7 times with PBS/Tween, and alkaline phosphate (AP)-labeled goat anti-mouse IgG, IgA, IgM (H+L) (Zymed) is added ( 1/1000) for 1 hour at 20° C. The plates are again washed 7 times with PBS/Tween, alkaline phosphate substrate (1 mg/ml) is added. After 10 minutes, Ig levels are quantified by an ELISA reader (absorbance 405 nm). The concentration of anti-ovalbumin is determined by comparison with a standard curve obtained using mouse anti-ovalbumin antibody (Sigma; St. Louis, Mo.). To measure isotype-specific anti-ovalbumin antibodies, serum samples (diluted at 1/300 or 1/1000) are incubated on the ovalbumin-coated plates as described above. […] Ig levels are presented as OD measurements.
In general terms: An ELISA detects its analyte on a solid surface through an enzyme-linked reagent.

The conditions of data set [3]: humans; perfused at doses as high as 2 g/kg/day (Perrine et al., 1994); cited from earlier work.
Data set [4] concerns Anti-HGG antibody in serum. Description: Primary anti-HGG antibody response in mice treated with n-butyrate. The class given is in vivo. The arrangement: Anti-HGG antibody in serum of individual mice: unit not given here. The settings on record: for Anti-HGG antibody in serum, group mean (x) / Anti-HGG antibody in serum of individual mice: ELISA day 9; for Anti-HGG antibody in serum, group mean (x): mean of 5 mice; for Anti-HGG antibody in serum of individual mice: HGG 100 μg ip day 0. The source says: Prior to testing the suppressive effects of butyrate prodrugs in vivo, the ability of n-butyrate to inhibit a primary antibody response in mice was examined.

For data set [5] the following is noted: Daniel et al., 1989, cited from earlier work.
Setting [6] is: Experiment 1, 5.5 mg n-butyrate ip days 2–5.
Setting [7] is: Experiment 2, 5.5 mg n-butyrate ip days 2–6.

As for `CCCC(=O)OCCN1CCN(C(=O)CCC)CC1.Cl` [BEB, 2-(4-Butanoylpiperazinyl)ethyl butanoate hydrochloride], in data set [1], the “Suppression of IL-2-induced proliferation of Th1 cells” value was “comparable to n-butyrate”. Besides, in data set [1] (washed after 24 hours, fresh IL-2 medium, additional 2 days), the “Proliferation to IL-2 after compounds are washed out” value is on record as “regained their ability to proliferate to IL-2”. Besides, the “Effect on primary antigen-specific antibody production in vivo” value in data set [2] was “significantly less antigen-specific antibody than control mice”.
For the compound `CCCC(=O)NCCN1CCOCC1.Cl` [MEBA, 2-(4-Morpholinyl)ethyl butanamide hydrochloride], the “Suppression of IL-2-induced proliferation of Th1 cells” value in data set [1] is “does not suppress”. For the same compound, the “Effect on primary antigen-specific antibody production in vivo” value in data set [2] was “unable to suppress”.
Take `CCCC(=O)O.CCCC(=O)O.CCCC(=O)O.CCCC(=O)O.N=C(N)NCCC[C@H](N)C(=O)O.N=C(N)NCCC[C@H](N)C(=O)O.N=C(N)NCCC[C@H](N)C(=O)O` [arginine salt of butyrate]: the Toxicity result in data set [3] is “nontoxic”.
For `CCCC(=O)O` [n-butyrate], the figures for the “Anti-HGG antibody in serum, group mean (x)” value in data set [4] (setting [6]) and in data set [4] (setting [7]) were “x = 86 ± 72” and “x = 12 ± 11”, respectively. The “Anti-HGG antibody in serum of individual mice” value is 202 and 91 and 29 and 83 and 24 in data set [4] (setting [6]); 12 and 6 and 4 and 9 and 31 in data set [4] (setting [7]). Moreover, in data set [4] (mice, n-butyrate ip, versus control), the “Suppression of primary antibody response” value is recorded as 40–50%. Also, the half-life in vivo entry in data set [5] was “six”; in data set [5] (listed as n-buytyrate) it was 3 to 6 min.
